Read-outs that look alike come from different tables or passages of the source.

The source of these data is patent US20250297028A1, “TREATMENT OF RENAL CANCER USING A COMBINATION OF AN ANTI-PD-1 ANTIBODY AND ANOTHER ANTI-CANCER AGENT” (BRISTOL-MYERS SQUIBB COMPANY, priority 2014, published 2025).

Series [1] concerns renal cell carcinoma (RCC). Particulars: cited from earlier work; for OS (overall survival): phase 3, poor-risk patients with advanced RCC (Hudes et al., 2007).
Series [2] concerns murine renal carcinoma (Renca) tumor. Kind of series: Efficacy study in Renca murine RCC tumor model. The series is classed as in vivo, mouse. The settings on record: for % TGI (tumor growth inhibition) / Objective Responses (ORs): 33 days after implantation; for % TGI (tumor growth inhibition): sunitinib 120 mg/kg QD×14 PO, sorafenib 200 mg/kg QD×14 PO, 4H2 10 mg/kg Q4D×4 IP; for Objective Responses (ORs): responders/8 mice. An excerpt: Female 8-12 weeks old Balb/c and C57/BL6 mice (Harlan Laboratories, Federick, MD) were used in all studies. Mice were housed in sterile microisolator cages and administered sterile food and water ad libitum, unless otherwise specified.
The murine renal carcinoma (Renca) and murine colon adenocarcinoma (CT-26) tumor cell lines were maintained in vitro for less than 10 passages.
Tumor cells were implanted subcutaneously (SC). When the mean tumor volume reached about 100 mm^3, mice were randomized into groups of 8 animals. Vehicle (control), sunitinib (120 mg/kg) or sorafenib (200 mg/kg) was orally administered once daily for 14 days (QD×14, PO). MAb 4H2 was administered at 10 mg/kg every 4 days for a total of 4 treatments (Q4D×4) intraperitoneally (IP). Tumors were measured twice weekly, and the tumor volume was calculated as length×(width^2/2).

Series [3] concerns tumor-infiltrating immune cells in Renca tumors. The series can be described thus: Immune cell infiltration of Renca tumors (immunohistochemistry, flow cytometry). The settings on record: versus control group. The series is classed as in vivo, mouse. How it is done:
Immunohistochemistry and flow cytometry analyses were used to assess immune cell infiltration of tumors.
Frozen sections were fixed in an acetone/methanol mix and rinsed in phosphate-buffered saline (PBS). Sections were blocked for endogenous peroxidase and the primary antibodies (anti-CD8, anti-CD4, anti-FoxP3, and anti-PD-L1) were added and incubated overnight. Chromogenic development was done using a brown polymer-based detection system (Biocare Medical), with hematoxylin used as a blue counter stain for visualization of cellular nuclei.
Tumor-infiltrating immune cells were isolated and prepared as a single-cell suspension, then stained and analyzed via flow cytometry for expression of T-cell subsets (regulatory and activated) and myeloid cells (i.e., for expression of CD3, CD4, CD8, FoxP3, CD25, and CD69).
Background: Flow cytometry measures light scatter and fluorescence of single cells or particles in a stream.

Another series has as its target T1, PD-1 (Homo sapiens, UniProt Q15116).
T1 construct: indicate that PD-1 occupancy appears to be dose-independent in this dose range; endogenous in cells
Particulars: 15 subjects, 0.3 to 10 mg/kg, across all doses; cited from earlier work.

For series [4] the following is noted: dosing up to 10 mg/kg every two weeks; cited from earlier work.

T1 sequence (Q15116 25-288): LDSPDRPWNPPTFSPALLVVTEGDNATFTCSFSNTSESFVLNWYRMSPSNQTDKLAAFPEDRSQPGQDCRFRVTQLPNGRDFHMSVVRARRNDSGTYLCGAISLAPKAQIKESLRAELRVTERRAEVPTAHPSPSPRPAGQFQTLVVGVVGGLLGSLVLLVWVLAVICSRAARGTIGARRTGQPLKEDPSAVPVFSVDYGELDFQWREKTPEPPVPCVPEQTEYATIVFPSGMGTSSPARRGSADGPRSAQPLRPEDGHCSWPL

As for `CO[C@H]1C[C@@H]2CC[C@@H](C)[C@@](O)(O2)C(=O)C(=O)N2CCCC[C@H]2C(=O)O[C@H]([C@H](C)C[C@@H]2CC[C@@H](OCCO)[C@H](OC)C2)CC(=O)[C@H](C)/C=C(\C)[C@@H](O)[C@@H](OC)C(=O)[C@H](C)C[C@H](C)/C=C/C=C/C=C/1C` [Everolimus], the “improvement in median progression-free survival (PFS) versus placebo” value in series [1] (Motzer et al., 2008) was 2.1 month. For the same compound, in series [1] (versus placebo (Motzer et al., 2008)), the OS improvement result was “no OS improvement”.

For the compound `CNC(=O)c1cc(Oc2ccc(NC(=O)Nc3ccc(Cl)c(C(F)(F)F)c3)cc2)ccn1` [Sorafenib], in series [2], the “% TGI (tumor growth inhibition)” value came to 62% and the “Objective Responses (ORs)” value is reported as 0/8. In addition, the “activity as monotherapy in Renca model” value in series [2] (monotherapy) was “active”. The response rate in series [1] (randomized Phase 2, 128 treatment-naïve mRCC subjects (Procopio et al., 2011)) was 15%. Also, in series [3], the “infiltration of CD4+ and CD8+ T cells into tumor (IHC)” value was “increased T-cell infiltration into the tumor was not observed”.

`CCN(CC)CCNC(=O)c1c(C)[nH]c(/C=C2\C(=O)Nc3ccc(F)cc32)c1C` [Sunitinib]: in series [2], the “% TGI (tumor growth inhibition)” value was found to be 85% and the “Objective Responses (ORs)” value is 0/8.

As to `CO[C@H]1C[C@@H]2CC[C@@H](C)[C@@](O)(O2)C(=O)C(=O)N2CCCC[C@H]2C(=O)O[C@H]([C@H](C)C[C@@H]2CC[C@@H](OC(=O)C(C)(CO)CO)[C@H](OC)C2)CC(=O)[C@H](C)/C=C(\C)[C@@H](O)[C@@H](OC)C(=O)[C@H](C)C[C@H](C)/C=C/C=C/C=C/1C` [temsirolimus], the “OS (overall survival)” value in series [1] is on record as 10.9 months.

As for IFNα, in series [1], the “OS (overall survival)” value is listed as 7.3 months.

On to “ipilimumab: fully human, IgG1 monoclonal Ab that blocks the binding of CTLA-4 to its B7 ligands”, for which the ORR is 5% in series [1] (Phase 2 metastatic RCC, cohort A: 3 mg/kg loading dose then 1 mg/kg every 3 wk (Yang et al., 2007)) and 12.5% in series [1] (Phase 2 metastatic RCC, cohort B: 3 mg/kg every 3 wk for all doses (Yang et al., 2007)).

Consider nivolumab, for which the “mean PD-1 occupancy rate” value on PD-1 was 85%. Further, at PD-1, the “mean plateau PD-1 occupancy” value was 72%. For the same compound, the ORR is on record as 20% in series [1] (0.3 mg/kg, Phase 2 metastatic RCC (Motzer et al., 2014)); 9% in series [1] (0.3 mg/kg, pretreated with 1-3 prior anti-angiogenic therapies (Choueiri et al., 2014)); 22% in series [1] (2 mg/kg, Phase 2 metastatic RCC (Motzer et al., 2014)); 23% in series [1] (2 mg/kg, pretreated with 1-3 prior anti-angiogenic therapies (Choueiri et al., 2014)); 20% in series [1] (10 mg/kg, Phase 2 metastatic RCC (Motzer et al., 2014)); 22% in series [1] (10 mg/kg, pretreated with 1-3 prior anti-angiogenic therapies (Choueiri et al., 2014)). In addition, the ORR is listed as 13% in series [1] (10 mg/kg, treatment-naïve patients (Choueiri et al., 2014)) and 28-31% in series [1] (nivolumab 1 or 10 mg/kg alone, RCC, Phase 1 (WO 2013/173223)). Also, the “maximum tolerated dose (MTD), monotherapy” value in series [4] is given as “without reaching the maximum tolerated does (MTD)”.
